Test results published in patent US20100004267A1, “LIQUID PREPARATION” (ASUBIO PHARMA CO., LTD., priority 2006, published 2010).
Structures can show the parent of a compound that is named as a salt.

Columns and labels:
[1] = Likelihood of formation of insoluble aggregate with free base among counter ions; type: physicochemical; conditions: estimated from the inventors' examinations
[2] = Examination of antioxidant: storage at 60° C. (Test example 3); type: physicochemical
Protocol: In this examination, hydrochloride of the compound of formula (I) was used instead of SUN N8075. Approximately 400 mg of the hydrochloride of compound of formula (I) were precisely weighed and water was added to make the volume precisely 200 mL, which was provided as an original drug aqueous solution.
Approximately 400 mg of each antioxidant shown in Table 3 below were precisely weighed and dissolved by adding 20 mL of water. As to butylhydroxy anisole, 10.7 mg was precisely weighed and dissolved in 100 mL of water.
15 mL of each antioxidant solution was mixed with 15 mL of solution of drug substance to prepare a stock sample (in the sample, the concentration of the hydrochloride compound of formula (I) corresponds to 1 mg/mL and the concentration of antioxidant corresponds to 10 mg/mL).
After dispensing each stock sample into 15 brown glass ampules, the ampules were sealed and stored at 60° C.
As a control sample, 15 mL of solution of drug substance added with 15 mL of water were stored in the same condition.
The remaining three ampules for each sample solution were used for measurement at the start of tests.
Each prepared sample was sampled in time series. 1 mL of sample solution was precisely measured, change in appearance and solution state of the sample were observed, and then added with methanol to make the volume precisely 10 mL. For this solution, residual percentage of the hydrochloride of compound of formula (I) was calculated by HPLC method. Furthermore, the pH value of the sample solution remaining after completion of test was measured.

[3] = Butyl hydroxy anisole, at start
[4] = L-Cysteine HCl monohydrate 10 mg/mL, 1 day
[5] = L-Cysteine HCl monohydrate 10 mg/mL, 7 days
[6] = L-Cysteine HCl monohydrate 10 mg/mL, 21 days
[7] = L-Cysteine HCl monohydrate 10 mg/mL, at start
[8] = Sodium bisulfite 10 mg/mL, 1 day
[9] = Sodium bisulfite 10 mg/mL, 7 days
[10] = Sodium bisulfite 10 mg/mL, 21 days
[11] = Sodium bisulfite 10 mg/mL, at start
[12] = Sodium edetate 10 mg/mL, 7 days
[13] = Sodium edetate 10 mg/mL, 21 days
[14] = Sodium edetate 10 mg/mL, at start
[15] = Sodium pyrosulfite 10 mg/mL, 1 day
[16] = Sodium pyrosulfite 10 mg/mL, 7 days
[17] = Sodium pyrosulfite 10 mg/mL, 21 days
[18] = Sodium pyrosulfite 10 mg/mL, at start
[19] = α-Thioglycerol 10 mg/mL, 7 days
[20] = α-Thioglycerol 10 mg/mL, 21 days
[21] = α-Thioglycerol 10 mg/mL, at start

With Cc1cc(OC[C@@H](O)CN2CCN(c3ccc(Cc4ccc(F)cc4)cc3)CC2)c(C)c(C)c1N [compound represented by the formula (I), (2S)-1-(4-amino-2,3,5-trimethylphenoxy)-3-{4-[4-(4-fluorobenzyl)phenyl]-1-piperazinyl}-2-propanol] as the compound, how does the “Order of likelihood of formation of insoluble aggregate with free base among various counter ions” value [1] read?
Its value is “sulfate ion>sulfite (or bisulfite ion)>>phosphate ion (or hydrogen phosphate ion, dihydrogen phosphate ion)>acetate ion>chloride ion>methane sulfonate ion”.

Which results are given for Cc1cc(OC[C@@H](O)CN2CCN(c3ccc(Cc4ccc(F)cc4)cc3)CC2)c(C)c(C)c1N [hydrochloride of compound of formula (I)]?
Appearance ([2]; Butyl hydroxy anisole (10.7 mg in 100 mL stock), at start): colorless and clear; Appearance ([2]; Butyl hydroxy anisole, 1 day): colorless and clear; Purity ([2]; Butyl hydroxy anisole, 1 day): 96.8%; Residual degree ([2]; Butyl hydroxy anisole, 1 day): 99.2%; pH ([2]; Butyl hydroxy anisole, 1 day): 2.8; Appearance ([2]; Butyl hydroxy anisole, 7 days): colorless and clear; Purity ([2]; Butyl hydroxy anisole, 7 days): 80.6%; Residual degree ([2]; Butyl hydroxy anisole, 7 days): 80.3%; pH ([2]; Butyl hydroxy anisole, 7 days): 2.8; Appearance ([2]; Butyl hydroxy anisole, 21 days): Brown precipitates; Purity ([2]; Butyl hydroxy anisole, 21 days): 53.5%; Residual degree ([2]; Butyl hydroxy anisole, 21 days): 41.2%; pH ([2]; Butyl hydroxy anisole, 21 days): 2.8; Purity [2, 3]: 100%; Residual degree [2, 3]: 100%; pH [2, 3]: 2.8; Appearance ([2]; Citric acid 10 mg/mL, 1 day): colorless and clear; Purity ([2]; Citric acid 10 mg/mL, 1 day): 99.2%; Residual degree ([2]; Citric acid 10 mg/mL, 1 day): 98.0%; pH ([2]; Citric acid 10 mg/mL, 1 day): 2.2; Appearance ([2]; Citric acid 10 mg/mL, 7 days): colorless and clear; Purity ([2]; Citric acid 10 mg/mL, 7 days): 88.6%; Residual degree ([2]; Citric acid 10 mg/mL, 7 days): 89.8%; pH ([2]; Citric acid 10 mg/mL, 7 days): 2.2; Appearance ([2]; Citric acid 10 mg/mL, 21 days): colorless and clear; Purity ([2]; Citric acid 10 mg/mL, 21 days): 63.6%; Residual degree ([2]; Citric acid 10 mg/mL, 21 days): 57.3%; pH ([2]; Citric acid 10 mg/mL, 21 days): 2.2; Appearance ([2]; Citric acid 10 mg/mL, at start): colorless and clear; Purity ([2]; Citric acid 10 mg/mL, at start): 100%; Residual degree ([2]; Citric acid 10 mg/mL, at start): 100%; pH ([2]; Citric acid 10 mg/mL, at start): 2.1; Appearance [2, 4]: colorless and clear; Purity [2, 4]: 100%; Residual degree [2, 4]: 97.9%; pH [2, 4]: 1.7; Appearance [2, 5]: colorless and clear; Purity [2, 5]: 99.7%; Residual degree [2, 5]: 100.6%; pH [2, 5]: 1.7; Appearance [2, 6]: colorless and clear; Purity [2, 6]: 99.6%; Residual degree [2, 6]: 94.0%; pH [2, 6]: 1.7; Appearance [2, 7]: colorless and clear; Purity [2, 7]: 100%; Residual degree [2, 7]: 100%; pH [2, 7]: 1.7; Appearance ([2]; No additive, 1 day): colorless and clear; Purity ([2]; No additive, 1 day): 98.4%; Residual degree ([2]; No additive, 1 day): 98.7%; pH ([2]; No additive, 1 day): 2.8; Appearance ([2]; No additive, 7 days): colorless and clear; Purity ([2]; No additive, 7 days): 82.5%; Residual degree ([2]; No additive, 7 days): 84.4%; pH ([2]; No additive, 7 days): 3.0; Appearance ([2]; No additive, 21 days): colorless and clear; Purity ([2]; No additive, 21 days): 51.2%; Residual degree ([2]; No additive, 21 days): 43.1%; pH ([2]; No additive, 21 days): 2.9; Appearance ([2]; No additive, at start): colorless and clear; Purity ([2]; No additive, at start): 100%; Residual degree ([2]; No additive, at start): 100%; pH ([2]; No additive, at start): 2.8; Appearance [2, 8]: colorless and clear; Purity [2, 8]: 98.5%; Residual degree [2, 8]: 99.9%; pH [2, 8]: 3.2; Appearance [2, 9]: colorless and clear; Purity [2, 9]: 98.3%; Residual degree [2, 9]: 97.3%; pH [2, 9]: 2.8; Appearance [2, 10]: colorless and clear; Purity [2, 10]: 98.4%; Residual degree [2, 10]: 91.2%; pH [2, 10]: 2.8; Appearance [2, 11]: colorless and clear; Purity [2, 11]: 97.2%; Residual degree [2, 11]: 100%; pH [2, 11]: 3.5; Appearance ([2]; Sodium edetate 10 mg/mL, 1 day): colorless and clear; Purity ([2]; Sodium edetate 10 mg/mL, 1 day): 97.9%; Residual degree ([2]; Sodium edetate 10 mg/mL, 1 day): 94.1%; pH ([2]; Sodium edetate 10 mg/mL, 1 day): 3.8; Appearance [2, 12]: colorless and clear; Purity [2, 12]: 81.2%; Residual degree [2, 12]: 68.5%; pH [2, 12]: 4.1; Appearance [2, 13]: colorless and clear; Purity [2, 13]: 53.8%; Residual degree [2, 13]: 31.9%; pH [2, 13]: 4.2; Appearance [2, 14]: colorless and clear; Purity [2, 14]: 100%; Residual degree [2, 14]: 100%; pH [2, 14]: 4.0; Appearance [2, 15]: colorless and clear; Purity [2, 15]: 98.2%; Residual degree [2, 15]: 102.4%; pH [2, 15]: 3.1; Appearance [2, 16]: colorless and clear; Purity [2, 16]: 97.3%; Residual degree [2, 16]: 97.2%; pH [2, 16]: 2.9; Appearance [2, 17]: colorless and clear; Purity [2, 17]: 97.6%; Residual degree [2, 17]: 89.8%; pH [2, 17]: 2.7; Appearance [2, 18]: colorless and clear; Purity [2, 18]: 94.4%; Residual degree [2, 18]: 100%; pH [2, 18]: 3.6; Appearance ([2]; α-Thioglycerol 10 mg/mL, 1 day): colorless and clear; Purity ([2]; α-Thioglycerol 10 mg/mL, 1 day): 100%; Residual degree ([2]; α-Thioglycerol 10 mg/mL, 1 day): 97.5%; pH ([2]; α-Thioglycerol 10 mg/mL, 1 day): 2.8; Appearance [2, 19]: colorless and clear; Purity [2, 19]: 99.2%; Residual degree [2, 19]: 97.1%; pH [2, 19]: 2.8; Appearance [2, 20]: colorless and clear; Purity [2, 20]: 96.8%; Residual degree [2, 20]: 89.0%; pH [2, 20]: 2.8; Appearance [2, 21]: colorless and clear; Purity [2, 21]: 100%; Residual degree [2, 21]: 100%; pH [2, 21]: 2.7
